Experimental data from patent US20230056360A1, “BLOOD-BRAIN-BARRIER SYSTEMS” (priority 2020, published 2023).
“Also recorded” adds a separate entry of the source.

System: iBMECs
Test: blood-to-brain permeability of fluorescent molecules across iBMEC monolayers on transwells, monoculture or brain region-specific NVUs
Settings: iBMECs alone or co-cultured over primary rat neural cultures (cortex, striatum, hippocampus, cerebellum, spinal cord); one-way ANOVA, Tukey; result in words
Method: In order to obtain region-specific primary neural cultures, E18 rat embryos were extracted from a pregnant female. Embryos were dissected and several regions of the CNS were separated including cortex, striatum, hippocampus, cerebellum and spinal cord. The regions were enzymatically dissociated into single cells before seeded pre-coated MEA plates and petri dishes, in which they were cultured in Neurobasal medium (Sigma) for two weeks. In order to validate the various primary cell cultures, the cells were stained for the neuronal marker βIII-tubulin and the glial marker GFAP (FIG. 2).
iPSCs were differentiated into iBMECs as previously described. On Day 8 of differentiation, cells were enzymatically dissociated into single cell suspensions and seeded on precoated transwell inserts. 24 hours post seeding, iBMEC inserts were placed on top of primary neural cultures derived from the different CNS regions (FIG. 3) where they were cultured for three additional days.
Fluorescence was measured using a plate reader and calculated into concentrations using a calibration curve with known concentrations. Next, the inventors plotted the chart and extracted the slope for each transwell. Slopes from empty transwells were subtracted from the obtained value and the results were used to calculate the permeability, expressed as 10-5 cm/min.

Compound | differences in permeability between iBMEC monoculture and NVUs of different brain regions
O=[N+]([O-])c1ccc(N[C@H]2C(O)O[C@H](CO)[C@@H](O)[C@@H]2O)c2nonc12 (stereo partly drawn) [2-NDBG, 2-[N-(7-nitrobenz-2-oxa-1,3-diazol-4-yl)amino]-2-deoxy-D-glucose] | not different between the NVUs
O=C([O-])c1ccccc1-c1c2ccc(=O)cc-2oc2cc([O-])ccc12.[Na+].[Na+] [sodium fluorescein] | significantly more permeable in the monoculture compared to the NVUs of the cortex, cerebellum, striatum and hippocampus; also recorded: significance differences in permeability were also observed between spinal cord and other NVUs
